Measurements reported in patent US20250179057A1, “MEK IMMUNE ONCOLOGY INHIBITORS AND THERAPEUTIC USES THEREOF” (Immuneering Corporation, priority 2022, published 2025).

Experiments:
[1] = system: phospho-MEK in A549 cells; experiment: Cell-based pMEK (pMEK:tMEK, CRAF bypass) in A549 cells; conditions: 2 h, pMEK to total MEK normalized to DMSO control
Protocol: (§1) Materials and Methods: A549 or A375 cells were seeded in 6-well plates at an appropriate seeding density on day 0. On day 2 or 3, after checking the health and confluency of cells, the media was aspirated and replaced with 1 mL media containing a predetermined concentration of compound and incubated for 2 hours. After 2 hours, the media was aspirated, and the cells washed 2 times with cold PBS. Cells were lysed on ice, with 50 uL 1×CST lysis buffer +1 mM PMSF for 5 minutes. After 5 minutes, cells were removed using a scraper and transferred to cold 1.5 mL tubes, and centrifuged for 10 min, 4° C., 14,000×g. Supernatant was gently removed and snap frozen in liquid nitrogen. Protein concentration of the lysate was determined using Bradford Reagent (analyzed using SpectraMax M2E) and diluted to 1 mg/mL or pERK or 1.5 mg/mL for pMEK analysis. […] All dilutions were in Milk-free antibody diluent.
(§2) A549 or […] cells were treated in duplicate for two hours with compounds at varying concentrations. After two hours, the cells were lysed, snap frozen, and stored at −80° C. After storage, the lysate was quantified with the Bradford assay. Before the lysates were prepared to run on the Jess, the lysates were diluted to 1 mg/mL for pERK analysis and 1.5 mg/mL pMEK analysis using quantitative Western blotting. ERK and MEK phosphorylation levels were estimated by taking the ratio of phospho-protein to total protein and normalizing to the DMSO control.
as §2

[2] = system: phospho-ERK in A549 (KRAS G12S) cells; experiment: Cell-based pERK (pERK:tERK) in A549 cells; set-up: A549-pERK 10 uM, 2 h: unit not given here; conditions: 2 h; for A549-pERK (10 nM, 2 h): phospho- to total protein ratio normalized to DMSO control (Table 9)
Protocol: Media components, reagents and buffers for Western Blot: All cell culture media components were obtained from ThermoFisher Scientific. […] Laemmli sample loading 4× buffer (ThermoFisher Scientific, Cat No. NP0007). MOPS/SDS electrophoresis running buffer (GenScript, Cat No. M00138).
Subculture conditions: Adherent cells were grown to approximately 90% confluency, culture medium was aspirated and the cell layer was rinsed with PBS. […] Eight mL media was added, cells were spun down at 1000×g for 5 minutes. Cell pellet was re-suspended in 10 mL media and an appropriate volume was inoculated into a new culture flask.
Compound (drug) treatment: Cells were plated in a 6-well plate at a density of 250,000-300,000 cells/well in 3 mL media and incubated 37° C. in a humidified, 5% CO2 incubator. […] These solutions were added to the cells (3 uL/well), mixed by swirling the plate, and incubated at 37° C. in a humidified, 5% CO2 incubator for 2 hours.
Cell lysis and protein estimation: Cells were washed with PBS, and scraped in 50 μL of lysis buffer containing protease and phosphatase inhibitors. Cell lysates were stored at −20° C. Cell lysates were thawed and spun at 12,000 rpm for one minute, 3 ul of the supernatant was added to 500 μL of Coomassie blue reagent following by 500 μL of water. […] Protein standards were used (0-20 mg/mL) to calculate protein concentrations of test samples.
All samples were heated at 95° C. for 5 minutes, cooled to room temperature and spun down. […] After the run, gel was removed and protein transfer was done using iBlot for 7 minutes, as per manufacturer's recommendations. After the transfer, nitrocellulose membrane was incubated on a shaker in 5 mL of blocking buffer at room temperature for 1 hr. The blot was then incubated overnight on a shaker in 5 ml of blocking buffer containing 0.2% Tween-20 and primary antibody, at room temperature. Anti-phospho-STAT3 antibody was used at a dilution of 1:500, the other 3 primary antibodies were used at a dilution of 1:1000.
Next day, the blot was washed 3 times for 10 min each with 10 mL of TBST followed by incubation on a shaker in 5 ml of blocking buffer containing 0.2% Tween-20 and 0.5 ul of the IRDye labeled secondary antibodies, diluted 1:10000, at room temperature for 1 hr. The blot was then washed 3 times for 10 min each with 10 mL of TBST and dried between sheets of paper towels. Imaging was done using LICOR's Odyssey imaging system, quantitation was done using their software, Image Studio version 3.1.
as §1
They were grown in T75 flasks in DMEM containing 10% FBS and Pen-Strep. at 37° C. in a humidified, 5% CO2 incubator. The adherent cells were grown to about 90% confluency, culture medium was aspirated, and the cell layer was rinsed with PBS. […] Eight mL media was added, cells were spun down at 1000 g for 5 minutes. Cell pellet was re-suspended in 10 mL media and an appropriate volume was inoculated into a new culture flask. Cells were plated in a 6-well plate at a density of 250,000-300,000 cells/well in 3 mL media and incubated 37° C. in a humidified, 5% CO2 incubator.

SMILES	A549-CRAF BP 100 nM, 2 h [1]	A549-pERK (10 nM, 2 h) [2]	A549-pERK 10 uM, 2 h ([2]; 10 uM, phospho- to total protein ratio normalized to DMSO control)
CNS(=O)(=O)Nc1cccc(Cc2c(CN(C)CC3CCC3)c3ccc(OC(=O)N(C)C)cc3oc2=O)c1F [Compound 88]	53.6	142	–
CNS(=O)(=O)Nc1nccc(Cc2c(C)c3cc(Cl)c(OC(=O)N(C)C)cc3oc2=O)c1F [Compound 111]	48.6 (mean, n = 2)	4.63	–
Cc1c(Cc2cccc(NS(=O)(=O)C(C)C)c2F)c(=O)oc2cc(OC(=O)N(C)C)ccc12 [Compound 115]	39.2 (mean, n = 2)	13.5	–
CNS(=O)(=O)Nc1cccc(Cc2c(CN(C)Cc3ccccc3)c3ccc(OC(=O)N(C)C)cc3oc2=O)c1F [Compound 80]	56.1	56.4	–
C#CCNCc1c(Cc2cccc(NS(=O)(=O)NC)c2F)c(=O)oc2cc(OC(=O)N(C)C)ccc12 [Compound 14]	59.1	64	–
CNS(=O)(=O)Nc1cccc(Cc2c(CN3CC(OC)C3)c3ccc(OC(=O)N(C)C)cc3oc2=O)c1F [Compound 74]	59.2	75.3	–
Cc1c(Cc2cccc(NS(=O)(=O)C3CCC3)c2F)c(=O)oc2cc(OC(=O)N(C)C)ccc12 [Compound 118]	39.1 (mean, n = 2)	21.1	–
CNS(=O)(=O)Nc1cccc(Cc2c(CN3CCNCC3)c3cc(Cl)c(OC(=O)N(C)C)cc3oc2=O)c1F [Compound 21]	47.9 (mean, n = 2)	20.4	–
CN(C)C(=O)Oc1ccc2c(CN3CCNCC3)c(Cc3ccnc(NS(=O)(=O)C4CC4)c3F)c(=O)oc2c1 [Compound 150]	90.2	47.4	–
CNS(=O)(=O)Nc1nccc(Cc2c(CN(C)C)c3cc(F)c(OC(=O)N(C)C)cc3oc2=O)c1F [Compound 140]	70.3	65.0	–
CNS(=O)(=O)Nc1cccc(Cc2c(CN3CC4(CCC4)C3)c3ccc(OC(=O)N(C)C)cc3oc2=O)c1F [Compound 153]	54.1	50.2	–
CCS(=O)(=O)Nc1cccc(Cc2c(CN(C)C)c3cc(Cl)c(OC(=O)N(C)C)cc3oc2=O)c1F [Compound 132]	57.8	62.6	–
C#CCNCCc1c(Cc2cccc(NS(=O)(=O)NC)c2F)c(=O)oc2cc(OC(=O)N(C)C)ccc12 [Compound 183]	65.9 (mean, n = 2)	32.4	0.82
CNS(=O)(=O)Nc1cccc(Cc2c(C)c3cc(Cl)c(OC(=O)N(C)C)cc3oc2=O)c1F [Compound 109]	41.9 (mean, n = 2)	4.51	–
CNS(=O)(=O)Nc1cccc(Cc2c(CN(C)C3CC3)c3ccc(OC(=O)N(C)C)cc3oc2=O)c1F [Compound 82]	72.3	64.9	–
CNS(=O)(=O)Nc1nccc(Cc2c(C)c3cc(C)c(OC(=O)N(C)C)cc3oc2=O)c1F [Compound 110]	56.6 (mean, n = 2)	5.92	–
CNS(=O)(=O)Nc1cccc(Cc2c(CN(C)CC3CC3)c3ccc(OC(=O)N(C)C)cc3oc2=O)c1F [Compound 84]	87.3	83.2	–
CNS(=O)(=O)Nc1cccc(Cc2c(CNCC#N)c3ccc(OC(=O)N(C)C)cc3oc2=O)c1F [Compound 33]	51.4	55.4	–
CCCN(C)Cc1c(Cc2cccc(NS(=O)(=O)NC)c2F)c(=O)oc2cc(OC(=O)N(C)C)ccc12 [Compound 81]	78.3	57.6	–
CNS(=O)(=O)Nc1cccc(Cc2c(CN(C)CC#N)c3ccc(OC(=O)N(C)C)cc3oc2=O)c1F [Compound 87]	95.8	63.8	–
CCS(=O)(=O)Nc1nccc(Cc2c(CN(C)C)c3ccc(OC(=O)N(C)C)cc3oc2=O)c1F [Compound 148]	56.5	49.6	–
Cc1c(Cc2ccnc(NS(=O)(=O)C(C)C)c2F)c(=O)oc2cc(OC(=O)N(C)C)ccc12 [Compound 114]	59.9 (mean, n = 3)	36.6	–
Cc1c(Cc2ccnc(NS(=O)(=O)C3CC3)c2F)c(=O)oc2cc(OC(=O)N(C)C)ccc12 [Compound 112]	52.9 (mean, n = 2)	46.3	–
CNS(=O)(=O)Nc1cccc(Cc2c(C)c3cc(C)c(OC(=O)N(C)C)cc3oc2=O)c1F [Compound 108]	47.9 (mean, n = 2)	5.78	–
Cc1c(Cc2ccnc(NS(=O)(=O)C3CCC3)c2F)c(=O)oc2cc(OC(=O)N(C)C)ccc12 [Compound 125]	41.7	54.4	–
CNS(=O)(=O)Nc1cccc(Cc2c(CN(C)CC(C)C)c3ccc(OC(=O)N(C)C)cc3oc2=O)c1F [Compound 78]	64.2	78.6	–
CNS(=O)(=O)Nc1cccc(Cc2c(CN(C)C3CCC3)c3ccc(OC(=O)N(C)C)cc3oc2=O)c1F [Compound 86]	53.2	96.4	–
CNS(=O)(=O)Nc1cccc(Cc2c(CN(C)C)c3ccc(OC(=O)N4CCC4)cc3oc2=O)c1F [Compound 128]	37.7	66.3	–
CCS(=O)(=O)Nc1nccc(Cc2c(C)c3ccc(OC(=O)N(C)C)cc3oc2=O)c1F [Compound 119]	66.1	64.8	–
CNS(=O)(=O)Nc1cccc(Cc2c(CNc3ccsc3)c3ccc(OC(=O)N(C)C)cc3oc2=O)c1F [Compound 90]	71	72.4	–
